Where a SMILES comes first, the peptide text is derived from it. [ ]: non-standard residue; d: D form. ξ: configuration not given here. ξ3Thi = NC(Cc1ccsc1)C(=O)O
Legend:
[1] = test system: Romaine lettuce (Lactuca sativa L.) plants; experiment: Post-emergency herbicidal activity on Romaine lettuce plants; assay type: in vivo; details: Romaine lettuce at stage 2 to 3 leaves; compound in 0.1% Silwet, up to 0.5%; visual evaluation vs control plants
Procedure: The tests were performed on Romaine lettuce (Lactuca sativa L.) plants at the stage 2 to 3 leaves. The plants were grown on 300 well trays packed with soil, well dimensions 2×2×5 cm. Each compound was dissolved in 0.1% water solution of agronomically acceptable surfactant Silwet to final concentrations ranging from 0.0% (Control) to 0.5%. Two weeks after the treatment the herbicidal effects of the respective test material were visually evaluated by a comparison with the control plants. In addition, the aboveground part of the plant was neatly cut and weighed (wet weight). Each test was performed on 20 to 40 plants. The degree of growth inhibition and damage was evaluated according to the parameters in Table 2. Plant development at 7, 14, and 21 DAA (days after application) were evaluated on a scale of 0 to 100, in which score 0 represents dead plants and score 100 represents healthy plants according to plant vigor, height, and leaf color. Each test included 20 to 40 plants.

[2] = test system: Seeds of Lettuce R. (Super-Jericho); experiment: Filter paper bioassay with lettuce seeds (germination and early plant development); assay type: in vivo; details: lettuce seeds on filter paper; 1, 0.1, 0.01, 0.001 mM; radicle and shoots assessed after 6 days
Procedure: Seeds of Lettuce R. (Super-Jericho, non-sterilized) were obtained from Ben Shahar Moshe Ltd., 99% purity.
Filter Paper Bioassays with Lettuce Seeds:
The protocol is following Bertin et al. 2009 and Movellan et al. 2014 with specified modifications as described below.
Seeds were placed on Whatman no. 1 filter paper (Whatman, Middlesex, U.K.) in Petri dishes (10 seeds per plate) supplemented with 2.0 ml of water (Control) or with a solution comprising 1 mM, 0.1 mM, 0.01 mM and 0.001 mM of test material. Petri dishes with seeds were placed in a tray at an angle of 45°. The trays were kept in dark for 48 hours and then transferred to the growth chamber (22° C., 0.045 mmol×m−2×s−1 photosynthetic photon flux density; 6/18 dark/light cycle) for additional 4 days. Each experiment was performed at least in two repeats. The development of radicle and shoots of experimental and control plants were visually assessed 6 days after the beginning of the test to determine Minimal Effective Concentration (MEC) of test material. In the context of the invention, MEC is defined as the lowest concentration level of a test material that caused deviation (absence of germination or malformation of radicle and shoots) from the plant's development in the Control group.

| Compound | post-emergency herbicidal activity (Activity Index: plant's development vs Control) [1] | Minimal Effective Concentration (MEC) as activity score, seeds germination & early plants development [2] |
| --- | --- | --- |
| N[C@@H](Cc1cncc(O)c1)C(=O)O [Code 605] | Weak (More than 75) | Weak (More than 1 mM) |
| NC(CNS(=O)(=O)c1ccnc(Br)c1)C(=O)O (centres unmarked) [Code 657] | Weak (More than 75) | Weak (More than 1 mM) |
| NC(Cc1nccc(O)n1)C(=O)O (centres unmarked) [Code 619] | Weak (More than 75) | Weak (More than 1 mM) |
| NC(CNS(=O)(=O)c1cc(Cl)sc1Cl)C(=O)O (centres unmarked) [Code 514] | Weak (More than 75) | Weak (More than 1 mM) |
| NC(Cc1ccsc1)C(=O)NCC(=O)O (centres unmarked) [Code 548] (H-[ξ3Thi]-Gly-OH) | Strong (From 25 to 50) |  |
| CCCCOC(=O)C(Cc1nc(Cl)sc1Cl)NC(C)=O (centres unmarked) [Code 554] | Maximal (Less than 15) |  |
| NC(Cc1ccoc1)C(=O)O (centres unmarked) [Code 534] | Strong (From 25 to 50) | Moderate (1 mM) |
| Cc1sc(C)c(CC(N)C(=O)O)c1C (centres unmarked) [Code 512] | Weak (More than 75) | Weak (More than 1 mM) |
| COC(=O)C(N)CNS(=O)(=O)c1cc(Cl)sc1Cl (centres unmarked) [Code 523] | Weak (More than 75) | Weak (More than 1 mM) |
| CCCC(=O)NC(Cc1nc(Cl)sc1Cl)C(=O)OCC (centres unmarked) [Code 550] | Maximal (Less than 15) |  |
| NC(Cc1cnc(Cl)c(Cl)c1)C(=O)O (centres unmarked) [Code 641] | Very Strong (From 15 to 25) | Strong (0.1 mM) |
| NC(Cc1ccnc(Br)c1Br)C(=O)O (centres unmarked) [Code 635] | Weak (More than 75) | Weak (More than 1 mM) |
| CCOC(=O)C(N)Cc1ccnc(Br)c1Br (centres unmarked) [Code 662] | Moderate (From 50 to 75) | Strong (0.1 mM) |
| NC(Cc1cncc(Cl)c1)C(=O)O (centres unmarked) [Code 622] | Moderate (From 50 to 75) | Strong (0.1 mM) |
| Cl.Cl.NC(Cc1cccnc1)C(=O)O (centres unmarked) [Code 603] | Strong (From 25 to 50) | Strong (0.1 mM) |
| NC(Cc1cscc1C(F)(F)F)C(=O)O (centres unmarked) [Code 566] | Maximal (Less than 15) | Strong (0.1 mM) |
| NC(Cc1cncc(C(F)(F)F)c1)C(=O)O (centres unmarked) [Code 637] | Weak (More than 75) | Strong (0.1 mM) |
| COC(=O)C(Cc1ccc(Br)nc1)NC(C)=O (centres unmarked) [Code 672] | Moderate (From 50 to 75) | Strong (0.1 mM) |
| O=CNC(Cc1ccsc1)C(=O)O (centres unmarked) [Code 545] | Weak (More than 75) | Weak (More than 1 mM) |
| NC(Cc1c(Cl)cncc1Cl)C(=O)O (centres unmarked) [Code 629] | Moderate (From 50 to 75) | Weak (More than 1 mM) |
| NC(Cc1ncns1)C(=O)O (centres unmarked) [Code 532] | Moderate (From 50 to 75) | Strong (0.1 mM) |
| NC(Cc1cc(C(F)(F)F)cs1)C(=O)O (centres unmarked) [Code 510] | Strong (From 25 to 50) |  |
| NC(Cc1c[nH]c(=O)[nH]c1=O)C(=O)O (centres unmarked) [Code 620] | Weak (More than 75) | Weak (More than 1 mM) |
| Cl.NC(Cc1n[nH]c2ccccc12)C(=O)O (centres unmarked) [Code 599] |  | Maximal (0.01 mM and less) |

| Compound | post-emergency herbicidal activity (Activity Index: plant's development vs Control) [1] | Minimal Effective Concentration (MEC) as activity score, seeds germination & early plants development [2] |
| --- | --- | --- |
| NC(Cc1ccsc1)C(=O)O (centres unmarked) [Code 502] | Very Strong (From 15 to 25) | Maximal (0.01 mM and less) |
| NC(Cc1csc([N+](=O)[O-])c1)C(=O)O (centres unmarked) [Code 553] | Weak (More than 75) | Weak (More than 1 mM) |
| CCCOC(=O)C(N)CNS(=O)(=O)c1ccnc(Br)c1 (centres unmarked) [Code 658] | Weak (More than 75) | Weak (More than 1 mM) |
| NC(Cc1cncnc1)C(=O)O (centres unmarked) [Code 614] | Weak (More than 75) | Weak (More than 1 mM) |
| COC(=O)C(N)Cc1ccsc1 (centres unmarked) [Code 546] | Very Strong (From 15 to 25) | Maximal (0.01 mM and less) |
| Cc1nc(N)c(CC(N)C(=O)O)c(O)n1 (centres unmarked) [Code 669] | Weak (More than 75) | Weak (More than 1 mM) |
| NC(Cc1cncc(F)c1)C(=O)O (centres unmarked) [Code 626] | Strong (From 25 to 50) | Strong (0.1 mM) |
| NC(CP(=O)(O)O)c1ccsc1 (centres unmarked) [Code 563] | Weak (More than 75) | Weak (More than 1 mM) |
| NC(Cc1ncsc1Cl)C(=O)O (centres unmarked) [Code 528] | Weak (More than 75) | Moderate (1 mM) |
| NC(Cc1cnccn1)C(=O)O (centres unmarked) [Code 621] | Weak (More than 75) | Weak (More than 1 mM) |
| NC(Cc1c(F)cnc(Br)c1F)C(=O)O (centres unmarked) [Code 655] | Maximal (Less than 15) | Strong (0.1 mM) |
| Cl.Cl.Cn1ncnc1CC(N)C(=O)O (centres unmarked) [Code 770] | Weak (More than 75) |  |
| COC(=O)C(N)Cc1cc(Cl)sc1Cl (centres unmarked) [Code 568] | Maximal (Less than 15) |  |
| Cc1sc(Cl)cc1CC(N)C(=O)O (centres unmarked) [Code 559] | Moderate (From 50 to 75) |  |
| CCCCOCCOC(=O)C(Cc1nc(Cl)sc1Cl)NC(C)=O (centres unmarked) [Code 551] | Maximal (Less than 15) |  |
| Cl.Cn1nnc(CC(N)C(=O)O)n1 (centres unmarked) [Code 772] | Moderate (From 50 to 75) |  |
| Cl.Cn1cc(CC(N)C(=O)O)nn1 (centres unmarked) [Code 771] | Weak (More than 75) |  |
| Cc1nnc(CC(N)C(=O)O)n1C.Cl (centres unmarked) [Code 773] | Weak (More than 75) |  |
| NC(Cc1ccsc1Br)C(=O)O (centres unmarked) [Code 560] | Strong (From 25 to 50) |  |
| N[C@@H](Cc1cn[nH]c1C(F)(F)F)C(=O)O [Code 774] | Very Strong (From 15 to 25) |  |
| CCCCOCCOCCOC(=O)C(N)Cc1cn[nH]n1 (centres unmarked) [Code 775] | Maximal (Less than 15) |  |
| NC(Cc1csc(Cl)c1)C(=O)O (centres unmarked) [Code 518] | Strong (From 25 to 50) |  |
| Cn1cnnc1CC(N)C(=O)O (centres unmarked) [Code 717] | Weak (More than 75) |  |

— patent publication US20220232831A1, “NOVEL NON-CODING HETEROCYCLIC AMINO ACIDS (NCHAA) AND THEIR USE AS HERBICIDES” (Fortephest Ltd., priority 2019, published 2022)
